Source: a melting point compilation (Tetko et al.; mined from patent text by program, amines drawn as free bases though some values may be those of a salt)

| SMILES | melting point |
| --- | --- |
| O=C1CCCCC1C(C[N+](=O)[O-])c1ccc(F)cc1 (racemic) | 84 to 85 °C |
| N#Cc1ccc2oc3c(c2c1)CCC(C(=O)O)C3 (centres undefined) | 185 to 190 °C |
| CCCCc1nc2c(N)nc3ccccc3c2n1CCCCCCCCNS(=O)(=O)c1ccccc1 | 143 to 144 °C |
| N#CCc1c[nH]c2ccc(CS(=O)(=O)NCc3ccccc3C(N)=O)cc12 | 202 to 206 °C |
| Cn1cc(C2=C(c3cn(CCCN=[N+]=[N-])c4ccccc34)C(=O)NC2=O)c2ccccc21 | 222 to 224 °C |
| Cc1nsc2ccc([N+](=O)[O-])cc12 | 124 to 125 °C |
| COCCN(CCOC)c1ccc(Nc2ncc3c(C)c(Br)c(=O)n(C4CCCC4)c3n2)nc1 | 94 to 95 °C |
| CC1(O)Nc2cc(O)c(C(C)(C)C)cc2O1 (centres undefined) | 203 to 205 °C |
| CCCCCS(=O)(=O)NC(=O)OCc1ccc(OCCCC)cc1Oc1ncc(C(F)(F)F)cc1Cl | 124 to 126 °C |
| CC(O)CCc1ccc2c(c1)C(=O)c1ccccc1-2 (centres undefined) | 77 to 78 °C |
| Cc1cc(CCCCCOc2c(C)cc(-c3noc(C)n3)cc2C)on1 | 45 to 46 °C |
| CC1CSC2=C(O1)c1cc(N3CCCCC3)ccc1C(=O)C2=O (centres undefined) | 225 to 226 °C |
| c1ccc(-c2ncc(N3CCCC3CCCCOC3CCCCO3)nc2-c2ccccc2)cc1 (centres undefined) | 94 to 96 °C |
| O=C1CCC2=C(CCc3c(Cl)cccc32)N1 | 252 to 253 °C |
| Cc1cc(N)cc(C)c1C(=O)Cc1ccccc1C(F)(F)F | 168 °C |
| CCc1nn(CCO)c(CC)c1Oc1cc(C#N)cc(C#N)c1 | 125 °C |
| O=C(O)CCC(=O)c1cccc([N+](=O)[O-])c1 | 162 to 164 °C |
| CC(C)n1nc(-c2sc(NC(=O)CN3CCCCC3)nc2-c2ccccc2)ccc1=O | 189 to 190 °C |
| O=C(NC(=O)c1ccc(C(F)(F)F)cc1)Nc1ccc(Cl)cc1 | 260 °C |
| COC(=O)c1cc(F)c(F)c2c1NC(C)C2 (centres undefined) | 50 to 52 °C |
| O=C(CN1C(=O)C(NC(=O)Nc2ccc(Cl)cc2)N=C(c2ccccc2)c2ccccc21)NCc1ccccc1 (centres undefined) | 260 to 262 °C |
| CC(C)(C)[C@H](NC(=O)[C@@H](CC(=O)O)n1ccc(-c2ccc(-c3ccc(C(N)=O)cc3)cc2)c1)C(=O)Nc1ccncc1 | 194 to 196 °C |
| Nc1cc(-c2cc(=O)c(C(=O)O)cn2-c2ccc(F)cc2)ccc1O | 231 to 233 °C |
| COc1cc(C2CCCCC2)ccc1CCCC(=O)O | 104 to 105 °C |
| CC(=O)c1ccc2c(c1)C(c1ccccc1F)=NC(C)(C)C(=O)N2C | 68 °C |

| SMILES | melting point |
| --- | --- |
| CCC(C)C(NC(=O)C(CSC(C)=O)C(F)(F)F)C(=O)O (centres undefined) | 81 to 85 °C |
| CCOC(=O)C(=NO)c1ccc(Br)cc1 | 163 to 164 °C |
| CC1(C)Oc2ccc([N+](=O)[O-])cc2C(n2ccccc2=O)C1(C)O (centres undefined) | 214 °C |
| O=C(CO/N=C/c1ccc([N+](=O)[O-])c(CO)c1)N1CCN(CC2CCCCC2)CC1 | 170 °C |
| CCCCCCCCCCCCCOc1ccc(CNc2ccc(C(=O)O)cc2)cc1 | 110 to 113 °C |
| CC(=O)O[C@@H]1[C@H](OC(C)=O)[C@@H](C)O[C@H]1n1c(Cl)nc2c(Br)c(Cl)c(Cl)cc21 | 138 to 141 °C |
| O=c1cccc(-c2ccccc2)[nH]1 | 200 °C |
| CC(C=CC=C(C)CO)=CC=CC=C(C)C1OCC(C)(C)CO1 | 136 to 137 °C |
| O=C(NC(=O)c1ccccc1Br)Nc1cc(C(F)(F)F)c(Cl)cc1Br | 193 °C |
| O=S1(=O)c2cccc3cccc(c23)N1CCCCN1CC=C(c2ccccc2)CC1 | 101 °C |
| NC(=O)NCc1cc2c(Oc3ccc(Cl)cc3)cncc2s1 | 202 to 204 °C |
| COC(=O)C1=C(C)NC(C)=C(NC(=O)Nc2ccccc2)C1c1ccccc1Cl (centres undefined) | 203 to 205 °C |
| CC(C)OC(=O)C1=C2SCC(=CC(=O)N(C)C)N2CC1C (centres undefined) | 126 to 128 °C |
| CC(C)N1Cc2cc(S(C)(=O)=O)ccc2N(CCN2CC=C(c3c[nH]c4cc(F)ccc34)CC2)S1(=O)=O | 118 to 120 °C |
| CN1CCN(C(=O)COC2c3ccccc3C(=O)N2c2ccc3ccc(Cl)nc3n2)CC1 (centres undefined) | 175 °C |
| Cn1cccc1-c1oncc1C(=O)Nc1ccccc1 | 100 to 103 °C |
| Cc1c(C)c(-c2cccc(CO)c2)c(C)c(C)c1OCCCS(C)(=O)=O | 132 to 134 °C |
| Cc1cc(C(=O)N2Cc3cccn3Cc3ccccc32)ccc1C1=CC(=O)CCC1 | 176 to 177 °C |
| Cc1cc(C(=O)Nc2cc(Oc3ccc4nc(NC(=O)C5CC5)cn4n3)ccc2Cl)n(C)n1 | 255 °C |
| Nc1ccc(Cn2c(=O)c3c(-c4noc(C5CC5)n4)ncn3c3ccccc32)cc1 | 246 to 248 °C |
| COc1cccc(C(=O)Nc2nnn[nH]2)c1[N+](=O)[O-] | 271 °C |
| CONC(=O)Nc1ccc(-c2sc3c(c2CN(C)C(C)c2ccccc2)c(=O)n(-c2ccccn2)c(=O)n3Cc2c(F)cccc2F)cc1 (centres undefined) | 168 to 170 °C |
| CCCCCCCCCCCCCCOc1cccc(CBr)c1CBr | 55.7 to 56.5 °C |
| COC(=O)c1cc(-n2c(OC)nc(C(F)(F)F)cc2=O)c(F)cc1Cl | 115 to 117 °C |
